From patent US12349665B2, “Animal model for hepatocellular carcinoma and uses thereof” (TAIPEI VETERANS GENERAL HOSPITAL, priority 2019, dated 2025) come the findings set out here.

Format in all cases: in vivo, mouse
For assay [1], the system named is HBV. The assay is described as follows: Long-term use and withdrawal of HBV antiviral drugs in hybrid mice (HBV transgenic x miR-122 knock-out), viral load. The settings on record: six-month-old hybrid mice, ETV 5 or 1 mg/kg; for amount of virus after one month of medication (M1) / amount of virus after one month of withdrawal (M2): TDF 135 or 50 mg/kg. As to the method:
Six-month-old hybrid mice were fed with different doses of TDF (135 or 50 mg/kg-day) and […] (5 or 1 mg/kg-day).
(Wu & Wu et al. Gastroenterology 2014). At present, nucleoside analogues that are more commonly used clinically are tenofovir (TDF) and entecavir (ETV), which have strong antiviral efficacy and rarely have drug resistance. Reactivation of the virus and recurrence of hepatitis occurred more frequently and early after withdrawal of tenofovir (TDF) than after withdrawal of entecavir (ETV). Withdrawal of tenofovir (TDF) may sometimes cause liver failure for some unknown reason. The effect of long-term use and withdrawal of HBV antiviral drug tenofovir (TDF) and entecavir (ETV) on the amount of virus was compared. Six-month-old hybrid mice were fed with different doses of TDF (135 or 50 mg/kg) and ETV (5 or 1 mg/kg). […] Studies of efficacy and side effects of long-term use of tenofovir (TDF) or entecavir (ETV) on reducing hepatitis by using the hybrid mice are going on, and valuable clinical data will be provided.

For assay [2], the system named is drug resistant HBV genome. The assay is described as follows: Antiviral drug treatment of HBV transgenic mice with drug resistant HBV genome, amount of virus in serum. To be noted: compared with wild-type HBV genome mice. From the text: (§1) According to the present invention, the drug resistant HBV genome is resistant to an antiviral nucleoside analogue, such as adefovir or lamivudine.
(§2) The upper and lower limits of the rectangles in the figure are quartiles, and the horizontal lines within the rectangles indicate the median. Mann-Whitney U test was used for statistical analysis, and p=0.0093, showing the significant differences.

Assay [3] concerns wild-type hepatitis B virus. The assay is described as follows: Antiviral drug treatment of HBV transgenic mice with wild-type HBV genome, amount of virus in serum.
Description: as §1, §2

Take `C=C1[C@H](CO)[C@@H](O)C[C@@H]1n1cnc2c(=O)[nH]c(N)nc21` [ETV, entecavir]: in assay [1], the “amount of virus after 3 months of withdrawal (M4)” value was in the range of 1.0E+5 to 1.0E+6, the “amount of virus after 6 months of withdrawal (M7)” value is reported as “rose to the level before the medication (M0)”, the “amount of virus after one month of medication (M1)” value is “reduce the amount of virus to a minimum” and the “amount of virus after one month of withdrawal (M2)” value was “maintained at the lower level”.

Regarding `CC(C)OC(=O)OCOP(=O)(CO[C@H](C)Cn1cnc2c(N)ncnc21)OCOC(=O)OC(C)C.O=C(O)/C=C/C(=O)O` [TDF, tenofovir], in assay [1], the “amount of virus after one month of medication (M1)” value is “reduce the amount of virus to a minimum” and the “amount of virus after one month of withdrawal (M2)” value is recorded as “quickly rose to the level before medication (M0)”.

Turning to `Nc1ncnc2c1ncn2CCOCP(=O)(O)O` [adefovir], the “amount of serum virus after treatment with antiviral drug” value in assay [2] is “decreased much less”; in assay [3], “decreased by more than a thousand times”.
